Holding throughout (type): in vivo
In assay [1] the test system is Blattella germanica (cockroach nymphs). Kind of assay: Contact test on cockroach nymphs (BG/C), Plastic pot, mortality. To be noted: 48 h, 500 ppm, contact, 2 days, read-out: BG/C grading of mortality. In a few lines:
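Cockroach nymphs and/or their medium were treated with aqueous preparations at 500, 250 or 100 ppm (acetone solution diluted in water with 0.01% Lissapol NX wetting agent). Mortality or knockdown was assessed typically 1–3 days later and graded A (80–100%), B (50–79%) or C (<50%).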

Assay [2] concerns Musca domestica (houseflies - adults). Kind of assay: Knockdown test on houseflies - adults (MD/KD), Cotton wool/sugar. The following applies: 500 ppm, 4 hours, read-out: MD/KD grading of knockdown. The gist of the method: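 Adult houseflies exposed to the compound at 500, 250 or 100 ppm in acetone/water with 0.01% wetting agent, on a cotton wool/sugar medium. Knockdown and mortality assessed, graded A (80-100%), B (50-79%) or C (<50%).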

In assay [3] the test system is Tetranychus urticae (spider mites - adult). The experiment in a line: Contact test on spider mites - adult (TUa), French bean leaf, mortality. To be noted: 72 h, 500 ppm, contact, 3 days, read-out: TUa grading of mortality. In a few lines: (§1)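 Compound dissolved in acetone, diluted with water containing 0.01% by weight wetting agent to 500, 250 or 100 ppm. Pests held on host plant or foodstuff; pests and/or medium treated. Mortality scored one to three days later as grade A (80-100%), B (50-79%) or C (<50%) mortality or knockdown.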

The subject of assay [4] is Diabrotica balteata (rootworm larvae). The experiment in a line: Residual test on rootworm larvae (DB), Filter paper/maize seed, mortality. To be noted: 48 h, 500 ppm, residual, 2 days, read-out: DB grading of mortality. The gist of the method:
as §1

The subject of a further assay is Myzus persicae (aphids). The experiment in a line: Contact test on aphids (MP), Chinese Cabbage leaf, mortality. To be noted: 72 h, 500 ppm, contact, 3 days, read-out: MP grading of mortality. In a few lines: as §1
Assay [5] relates to Nephotettix cincticeps (green leaf hopper - nymphs). Kind of assay: Contact test on green leaf hopper nymphs (NC), Rice plant, mortality. To be noted: 48 h, 500 ppm, contact, 2 days, read-out: NC grading of mortality. In a few lines:
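Product dissolved in acetone, diluted in water with 0.01% wetting agent to 500, 250 or 100 ppm; nymphs and/or host rice plants treated. Mortality or knockdown assessed 1–3 days later, graded A (80-100%), B (50-79%), C (<50%).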

For assay [6], the system named is Musca domestica (houseflies - adults). The experiment in a line: Contact test on houseflies - adults (MD), Cotton wool/sugar, mortality. The following applies: 72 h, 500 ppm, contact, 3 days, read-out: MD grading of mortality. The gist of the method:
as §1

Assay [7] relates to Tetranychus urticae (spider mites - ova). Kind of assay: Contact test on spider mites - ova (TUe), French bean leaf, mortality. To be noted: 144 h, 500 ppm, contact, 6 days, read-out: TUe grading of mortality. The gist of the method: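 Graded read-out: A 80-100%, B 50-79%, C below 50% mortality or knockdown, assessed usually 1-3 days post-treatment. Liquid preparations at 500, 250 or 100 ppm by weight, from acetone solution diluted in water with 0.01% wetting agent, applied to pests and/or their host plant or food medium.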

In assay [8] the test system is Heliothis virescens (tobacco budworm - larvae). Kind of assay: Residual test on tobacco budworm larvae (HV), Cotton leaf, mortality. To be noted: 48 h, read-out: HV grading of mortality. The gist of the method:
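Product in acetone diluted with water containing 0.01% Lissapol NX, at 500, 250 or 100 ppm; pests and/or host medium (here cotton leaf) treated. Mortality scored one to three days later, graded A (80-100%), B (50-79%), C (<50%).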

For assay [9], the system named is Spodoptera exigua (lesser army worm - larvae). The experiment in a line: Residual test on lesser army worm larvae (SP), Cotton leaf, mortality. The following applies: 48 h, 500 ppm, residual, 2 days, read-out: SP grading of mortality. The gist of the method:
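Product dissolved in acetone and diluted in water with 0.01% wetting agent to 500, 250 or 100 ppm; larvae and/or cotton leaf host treated. Mortality or knockdown scored one to three days later and graded A (80-100%), B (50-79%) or C (<50%).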

`COCc1c(F)c(F)c(COC(=O)C(c2cnc(C(F)(F)F)nc2)C(C)(C)C)c(F)c1F` (racemic) [Compound 41, 2,3,5,6-tetrafluoro-4-(methoxymethyl)benzyl (RS)-2-[2-(trifluoromethyl)pyrimidin-5-yl]-3,3-dimethylbutanoate]: the mortality at 500 ppm in assay [1] was 80 to 100%; in [3], 80 to 100%; in [4], below 50%; in the assay on Myzus persicae (aphids), 80 to 100%; in assay [5] it was 80 to 100%; in [6], 80 to 100%. Further, the mortality at 500 ppm in assay [7] was below 50%; in assay [8] it was 80 to 100%; in assay [9] it was 80 to 100%. Also, the pest or weed control at 500 ppm in assay [2] fell in the range of 80 to 100%.

On to `CC(C)(C)C(=O)OCc1c(F)c(F)c(COC(=O)C(c2cnc(C(C)(C)C)nc2)C(C)(C)C)c(F)c1F` (racemic) [Compound 172, 4-[(2,2-dimethylpropionyl)oxymethyl]-2,3,5,6-tetrafluorobenzyl (RS)-2-[2-(1,1-dimethylethyl)pyrimidin-5-yl]-3,3-dimethylbutanoate], for which the mortality at 500 ppm in [1] is below 50%; in [3] it was 80 to 100%; in [4], below 50%; with Myzus persicae (aphids), 50 to 79%; in assay [5] it was below 50%; in assay [6] it was below 50%. In addition, the mortality at 500 ppm in assay [7], in assay [8] and in [9] was below 50% throughout. Further, the pest or weed control at 500 ppm in assay [2] is below 50%.

As for `CN(C)c1ncc(C(C(=O)OCc2ccc(F)c(Oc3ccccc3)c2)C(C)(C)C)cn1` (racemic) [Compound 200, 4-fluoro-3-phenoxybenzyl (RS)-2-[2-(N,N-dimethylamino)pyrimidin-5-yl]-3,3-dimethylbutanoate], the mortality at 500 ppm in [1] was below 50%; in assay [3], 80 to 100%; in assay [4] it was below 50%; with Myzus persicae (aphids), 80 to 100%; in assay [5], 80 to 100%; in [6] it was below 50%. Also, the mortality at 500 ppm in [7] is below 50%; in assay [8], 80 to 100%; in [9] it was 80 to 100%. Besides, in assay [2], the pest or weed control at 500 ppm was in the range of 80 to 100%.

As for `Cc1ncc(C(C(=O)OC(C)c2cccc(Oc3ccccc3)n2)C(C)(C)C)cn1` (racemic) [Compound 205, RS-1-(6-phenoxypyrid-2-yl)ethyl (RS)-2-(2-methylpyrimidin-5-yl)-3,3-dimethylbutanoate], the mortality at 500 ppm in assay [1] was below 50%; in assay [3], 80 to 100%; in [4], below 50%; in the assay on Myzus persicae (aphids), 80 to 100%; in assay [5], 80 to 100%; in [6], below 50%. Moreover, the values for the mortality at 500 ppm in assay [7], in assay [8] and in assay [9] were below 50%, 80 to 100% and 80 to 100%, respectively. Further, in assay [2], the pest or weed control at 500 ppm was below 50%.

Consider `CCOc1c(F)c(COc2ccccc2)c(F)c(F)c1COC(=O)C(c1cnc(C(C)(C)C)nc1)C(C)(C)C` (racemic) [Compound 194, 2,3,5-trifluoro-6-ethoxy-4-(phenoxymethyl)benzyl (RS)-2-[2-(1,1-dimethylethyl)pyrimidin-5-yl]-3,3-dimethylbutanoate], for which the mortality at 500 ppm is below 50% in assay [1]; 80 to 100% in [3]; below 50% in assay [4]; below 50% in the assay on Myzus persicae (aphids); below 50% in assay [5]; below 50% in assay [6]. The mortality at 500 ppm in [7] was below 50%; in assay [8] it was below 50%; in assay [9] it was 80 to 100%. In addition, the pest or weed control at 500 ppm in assay [2] is below 50%.

Turning to `COc1c(F)c(COc2ccccc2)c(F)c(F)c1COC(=O)C(c1cnc(C(C)(C)C)nc1)C(C)(C)C` (racemic) [Compound 193, 2,3,5-trifluoro-6-methoxy-4-(phenoxymethyl)benzyl (RS)-2-[2-(1,1-dimethylethyl)pyrimidin-5-yl]-3,3-dimethylbutanoate], the mortality at 500 ppm in assay [1] is below 50%; in assay [3], 80 to 100%; in assay [4], below 50%; in the assay on Myzus persicae (aphids), 80 to 100%; in [5], 50 to 79%; in assay [6], below 50%. In addition, the values for the mortality at 500 ppm in assay [7], in assay [8] and in assay [9] were below 50%, below 50% and 80 to 100%, respectively. Further, the pest or weed control at 500 ppm in assay [2] is below 50%.

On to `C#CCc1c(F)c(F)c(COC(=O)C(c2cnc(C(C)(C)C)nc2)C2CC2)c(F)c1F` (racemic) [Compound 91, 2,3,5,6-tetrafluoro-4-(prop-2-yn-1-yl)benzyl (RS)-2-[2-(1,1-dimethylethyl)pyrimidin-5-yl]-2-cyclopropylacetate], for which the mortality at 500 ppm (in [1]; in [3]; in assay [4]; in the assay with Myzus persicae (aphids); in assay [5]; in assay [6]) was 80 to 100% throughout. Moreover, the mortality at 500 ppm in assay [7], in assay [8] and in assay [9] was 80 to 100% in each case. The pest or weed control at 500 ppm in assay [2] is 80 to 100%.

As for `CC(C)(C)c1ncc(C(C(=O)OCc2ccc(F)c(Cc3ccccc3)c2)C(C)(C)C)cn1` (racemic) [Compound 18, 3-benzyl-4-fluorobenzyl (RS)-2-[2-(1,1-dimethylethyl)pyrimidin-5-yl]-3,3-dimethylbutanoate], the mortality at 500 ppm in assay [1] is below 50%; in assay [3], 80 to 100%; in assay [4], 80 to 100%; with Myzus persicae (aphids), 80 to 100%; in assay [5], 80 to 100%; in [6] it was below 50%. In addition, the values for the mortality at 500 ppm in assay [7], in [8] and in assay [9] were below 50%, 80 to 100% and 80 to 100%, respectively. Moreover, the pest or weed control at 500 ppm in assay [2] was 80 to 100%.

Consider `Cc1ncc(C(C(=O)OCc2ccc(F)c(Oc3ccccc3)c2)C(C)(C)C)cn1` (racemic) [Compound 206, 4-fluoro-3-phenoxybenzyl (RS)-2-(2-methylpyrimidin-5-yl)-3,3,-dimethylbutanoate], for which the mortality at 500 ppm was in the range of 50 to 79% in assay [1]; 80 to 100% in assay [3]; 80 to 100% in assay [4]; 80 to 100% in the assay with Myzus persicae (aphids); 80 to 100% in [5]; 80 to 100% in assay [6]. Besides, the values for the mortality at 500 ppm in [7], in assay [8] and in assay [9] were below 50%, 80 to 100% and 80 to 100%, respectively. In addition, in assay [2], the pest or weed control at 500 ppm is 80 to 100%.

Take `Cc1c(COC(=O)C(c2cnc(C(C)(C)C)nc2)C(C)(C)C)cccc1-c1ccccc1` (racemic) [Compound 3, 2-methyl-3-phenylbenzyl (RS)-2-[2-(1,1-dimethylethyl)pyrimidin-5-yl]-3,3-dimethylbutanoate]: the mortality at 500 ppm in assay [1] is below 50%; in assay [3], 80 to 100%; in assay [4], below 50%; in the assay on Myzus persicae (aphids), below 50%; in assay [5] it was 80 to 100%; in assay [6], below 50%. The mortality at 500 ppm in assay [7] lay within 80 to 100%; in assay [8] it was 50 to 79%; in assay [9] it was 80 to 100%. In [2], the pest or weed control at 500 ppm is below 50%.

The values above are taken from patent US4962109A, “Insecticidally and acaricidally active pyrimidine esters and intermediates therefor” (Imperial Chemical Industries PLC, priority 1985, dated 1990).
